Measurements published in US6180669A, “Method for treatment of dermatological disorders” (priority 1999, dated 2001).
“Also recorded” adds a separate entry of the source. Where two headings read alike, the source gives them in different places.

Key:
[1] = system: human keratinocytes; experiment: Cell proliferation assay; type: cell-based; conditions: for IC50: Homo sapiens; for potency in inhibiting cell proliferation (in words): in vitro, keratinocytes
Experimental: Modulation of keratinocyte proliferation.
Cell proliferation assay.
50,000 human keratinocytes from secondary culture were seeded into 24 well plates, in 1 ml DMEM-F12 medium (Green H. (1978) Cell 15:801-805) with growth factors and 10% Fetal Calf Serum. The cells were incubated at 37° C. in 5% CO2 until 30-40% confluency was reached and then the various test materials, dissolved in ethanol, were added in volumes of 0.1-20 μl, to final volume of 0.5 ml. The same volumes of ethanol were added to control cultures, for comparative values of ethanol cytotoxicity. No apparent cytotoxicity was found up to 40 μl ml ethanol. The medium was replaced with fresh medium prior to addition of the test materials. The cultures were further incubated for 3 days at 37° C. and 5% CO2 and then washed with phosphate buffered saline (PBS). Cell numbers were determined using two methods: 1) trypsinization, followed by cell counting; and 2) fixation of the culture with p-formaldehyde 2% in PBS and methylene blue staining, followed by extraction of color and optical density measurement at 650 nm. Both methods were found in good correlation, so that 1 OD unit corresponded to 1,000,000 cells. IC50, i.e., the concentration that caused 50% inhibition of cell proliferation for each of the test materials is presented in Table 1.

[2] = in vitro; conditions: human, keratinocytes
Experimental: The direct effect of the compounds of the invention on the proliferation of human keratinocytes was assessed in vitro using a keratinocyte cell line.
Modulation of keratinocyte proliferation. The effect of di(ethyl salycilate)azelate and di-retinyl azelate on cell proliferation and cell viability was tested in vitro using human keratinocyte culture system.
Keratinocyte cells, as above, were allowed to proliferate in medium, without the test materials, up to 100% confluency, with one exchange of medium during growth. Confluent cultures were incubated with increasing concentrations of the test materials in ethanol for three days at 37° C. and 5% CO2. At the end of the incubation period the cultures were washed with PBS and measured for remaining attached cells using the above described methods.

[3] = system: acne; conditions: 20% preparation, twice daily; Fitton and Goa; cited from earlier work
[4] = system: sebaceous glands; conditions: topical, literature, cited from earlier work
[5] = system: keratinocytes; conditions: Passi et al.; cited from earlier work
[6] = system: reduction of testosterone to dihydrotestosterone; conditions: literature; cited from earlier work
[7] = system: comedones, rabbit ear acne model; experiment: Efficacy in the rabbit ear acne model (comedolytic effect); type: in vivo
Experimental: See, Lee, et al. Kor. J. Dermatol. 28(5):543-549 (1990).
Efficacy of di(ethyl salicylate)azelate (10%) in the rabbit ear acne model. Three mature male albino rabbits were treated as follows. The external ear canals on both ears were treated once daily for five weekdays for three weeks with 1% crude coal tar in Hydrophilic Ointment USP. Then one ear was treated with antiacne lotion of Example 4 once daily for five weekdays for three weeks while the opposite ear served as an untreated control. Excision biopsies were taken from both sides at the end of three weeks of treatment. […] These were judged to be moderate examples of comedones with distortion of the follicular infundibulum by dense horn.

[8] = system: skin of a human subject; experiment: Human skin irritation test; type: in vivo; conditions: 48 h application, 0.1 ml; observed upon removal and 1, 24, 48 h later; ester 20%; mixture 7.5% azelaic acid + 11% salicylic acid
Experimental: Human skin irritation test. The following lotions (0.1 ml) were applied to the skin of a human subject for 48 hours, using standard skin irritation test chambers (0.64 sq. cm.):
(1) 20% di(ethyl salicylate)azelate (400 mmole/ml), dissolved in PEG-400/ethanol 1:1;
(2) mixture of 7.5% azelaic acid (400 mmole/ml) and 11% salicylic acid (800 mmole/ml), dissolved in PEG-400/ethanol 1:1; and
(3) PEG-400/ethanol 1:1 (placebo).

[9] = system: skin of rabbits; experiment: Acute dermal toxicity/irritation test (modified Draise); type: in vivo, rabbit; conditions: 10% and 20%, 0.5 ml, 24 h application, observed 1, 24 and 72 h after removal
Experimental: These findings emphasize a distinct advantage of di(ethyl salicylate)azelate over its parent components.
Acute dermal toxicity/irritation test. The purpose of this study was to evaluate the acute potential dermal irritation effect on skin following the topical application of di(ethyl salicylate) azelate, in rabbits. This test is a modified version of the original Draise method, as described in OECD guidelines. 0.5 ml of either di(ethyl salicylate)azelate (10% or 20%, dissolved in PEG-400/ethanol 1:1) or the vehicle alone were applied to the skin of three rabbits for 24 hours. Rabbits were examined for signs of skin irritation 1, 24 and 72 hours after the removal of the test solutions. […] Based on the current protocol it was concluded that di(ethyl salicylate) azelate is a non-irritant agent.

[10] = system: skin oiliness of forehead; experiment: Sebolytic effect (skin oiliness of forehead, Skin Tester); type: in vivo, human; conditions: lotion of Example 5, twice daily, 14 days; prior to treatment 223 units
Experimental: Following fourteen days of topical treatment, the skin oiliness of the forehead of a human volunteer, tested using a photometric instrument was reduced from 223 units (resembling "oily skin") to 205 units (normal skin value).
Sebolytic effect of di(ethyl salicylate)azelate. […] Skin oiliness was tested using "Skin Tester, Model STC20" (IMS Ltd., Haifa, Israel) prior to treatment and 14 days thereafter. Prior to treatment, the sebum value was 223 units, typical of oily skin. The sebum value after two weeks of treatment was 205 units, corresponding to normal skin.

[11] = system: culicoides hypersensitivity; experiment: Effect on culicoides hypersensitivity in horses; type: in vivo, horse; conditions: 5% alcoholic solution, topically twice daily for two weeks
Experimental: Prior to treatment, the horses had typical occurrence of the disease, including localized dermatitis affecting the mane and poll and the root of the tail. FIG. 1 is a photograph of the mane area of a horse afflicted by culicoides hypersensitivity. […] The skin at the affected areas looked hairless, ridged and scaly. The shoulder area and hind quarters were also affected. The horses were treated topically with a 5% alcoholic solution of di(ethyl salicylate) azelate, twice daily for two weeks.
The effect of di(ethyl salicylate) azelate on culicoides hypersensitivity was tested in two horses with colicoides hypersensitivity. Prior to treatment, both horses had typical occurrence of the disease, including localized dermatitis affecting the mane and poll and the root of the tail. The shoulder area and hind quarters were also affected. The skin at the affected areas looked hairless, ridged and scaly. The horses were treated topically with a 5% alcoholic solution of di(ethyl salicylate)azelate, twice daily for two weeks. […] As clearly seen in the pictures, hair seemed to regrow and the skin looked healthy. This improvement persisted throughout 14 days of treatment and observation.

[12] = system: chin acne; furunculosis (eczema); experiment: Anti-acne and anti-inflammatory effect in cats (chin acne, furunculosis); type: in vivo, cat; conditions: 5% alcoholic solution, twice daily for 14 days
Experimental: The compounds of the present invention have been shown in animals to alleviate the symptoms of acne. Four cats with persistant chin acne were treated twice daily for 14 days with 5% alcoholic solution of di(ethyl salicylate) azelate. […] The skin lesions disappeared and the bald areas were covered with new hair.
Anti-acne and anti-inflammatory effect of di(ethyl salicylate) azelate. Four cats were admitted to the veterinary clinic with skin lesions identified as chin acne. One additional cat had localized furunculosis (eczema) on the chin. The area of the skin lesions was 1-4 cm^2 at baseline. All animals were previously treated with either benzoyl peroxide or topical steroids with no response. Cats were treated twice daily for 14 days with a 5% alcoholic solution of di(ethyl salicylate) azelate.

[13] = Keratinocyte, 72 h, 3 days incubation, 50% inhibition of cell proliferation, Table 1, read-out: IC50 (inhibitory concentration)
[14] = keratinocyte cell line, read-out: inhibitory concentration, cell proliferation
[15] = cytotoxic concentrations higher than inhibitory concentrations
[16] = listed as di(ethyl salicylate) azelate

Row | SMILES | IC50 [1, 13] [µM] | IC50 [1, 14] [µM] | CC50 at 72 h [2] [mM] | selectivity ratio ([2]; Safety factor (CD50/ID50)) | potency in inhibiting cell proliferation (in words) [1] | CC50 [2] [µM] | selectivity ratio [2, 15] | selectivity ratio ([2]; therapeutic safety margin) | other results
1 | O=C(O)CCCCCCCC(=O)O [Azelaic acid, reference compound] | 1500 | 1000 | 4 | 2.6 | – | – | – | – | selectivity ratio ([2]; cytotoxic concentration, times higher than inhibitory concentration): 2.6; time of topical application until effective in acne [3]: 3-6 months; skin oiliness / sebum composition, sebum excretion rate, size of sebaceous glands [4]: can not alter skin oiliness; skin oiliness / sebum composition, sebum excretion rate, size of sebaceous glands ([4]; listed as AZA): failed to induce specific changes in sebum composition, sebum excretion rate and the size of sebaceous glands; effect on keratinocytes [5]: antiproliferative effects on keratinocytes; inhibition of testosterone reduction to dihydrotestosterone [6]: competitive inhibitor of the reduction of testosterone to dihydrotestosterone
2 | CC1=C(/C=C/C(C)=C/C=C/C(C)=C/COC(=O)CCCCCCCC(=O)OC/C=C(C)/C=C/C=C(C)/C=C/C2=C(C)CCCC2(C)C)C(C)(C)CCC1 [Di-retinyl azelate, di-retinyl azelate] | 15 | 15 | 0.1 | 6.6 | significantly more potent than azelaic acid and salicylic acid | 100 | 6.6 to 10 | 6.6 to 10 | –
3 | O=C(O)c1ccccc1O [Salicylic acid, o-hydroxybenzoic acid, reference compound] | – | – | 6 | – | – | – | – | – | IC50 ([1]; Keratinocyte, 72 h, read-out: IC50 (inhibitory concentration)): 1600 µM; selectivity ratio [2]: 3.8
4 | CCOC(=O)c1ccccc1OC(=O)CCCCCCCC(=O)Oc1ccccc1C(=O)OCC [di(ethyl salicylate)azelate, Nonanedioic acid, di-[(2'-ethoxycarbonyl)phenyl]ester] | 300 | 300 | 3 | 10 | significantly more potent than azelaic acid and salicylic acid | 3 | 6.6 to 10 | 6.6 to 10 | reduction of comedones ([7]; 10% topical, once daily five weekdays for three weeks): effective in the reduction of comedones; also recorded: All three treated ears showed a marked reduction of the comedones; comedolytic effect compared with 0.025% Retin A Cream ([7]; 10% topical, rabbit ear): comparable to the effect of 0.025% Retin A Cream; comedolytic effect compared with 20% azelaic acid preparation of the prior art ([7]; 10% topical, rabbit ear, comparison with Lee et al.): superior to a 20% (1,060 mmole/ml) azelaic acid preparation; inflammatory response in treated area ([7]; topical, rabbit ear, Retin A at 0.025%): did not induce any inflammatory response in the treated area; also recorded: no inflammatory reaction; skin reaction / irritation [8]: did not irritate the skin; also recorded: no sign of any skin reaction; signs of skin irritation [9]: no signs of irritation; signs of skin irritation [9, 16]: no signs of skin irritation were observed; sebum value (skin oiliness) after treatment [10]: 205 units; improvement of lesions and hair growth [11]: After one week of treatment, there was a marked improvement in the appearance of all treated lesions; also recorded: hair seemed to regrow and the skin looked healthy. This improvement persisted throughout 14 days of treatment and observation; improvement of lesions and hair growth [11, 16]: After one week of treatment, there was a marked improvement in the appearance of all treated lesions. Hair regrew and the skin looked healthy; skin irritation in treated cats [12]: No skin irritation was noticed in any of the treated cats; response of chin acne ([12]; four cats): Three of the four cats responded to treatment within 10 days; also recorded: Three of the four cats responded to treatment within ten days; response of furunculosis (eczema) ([12]; one cat): responded positively; also recorded: successfully treated
